Like-named read-outs stand apart in the source and are kept apart here.
Columns and labels:
Assay in all cases: PTP IC50 assay, pNPP or FDP as substrate
Type in all cases: biochemical
PTP BETA = target: T1, PTP BETA (Homo sapiens, UniProt P23467)
T1 construct: The catalytic domain was amplified using the following oligonucleotides; made in house; host or cells: E. coli BL-21 (pGEX 6P-1)
Method: (§1) The following in vitro assay procedure is preferred to determine the level of activity and effect of the different compounds of the present invention on one or more of the PTPs. Similar assays can be designed along the same lines for any PTP using techniques well known in the art.
(§2) The catalytic assays described herein are performed in a 96-well format. The general procedure begins with the determination of PTP optimal pH using a three-component buffer system that minimizes ionic strength variations across a wide range of buffer pH. Next, the Michaelis-Menten constant, or Km, is determined for each specific substrate-PTP system. This Km value is subsequently used as the substrate reaction concentration for compound screening. Finally, the test PTP is exposed to varying concentrations of compound for fifteen minutes and allowed to react with substrate for ten minutes. The results are plotted as percent inhibition versus compound concentration and the IC50 interpolated from the plot.
(§3) All assays were performed using pNPP or FDP as substrate. The optimum pH was determined for each PTP used.
(§4) PTPase activity was assayed at 25° C. in a 100-μl reaction mixture containing an appropriate concentration of pNPP or FDP as substrate. The reaction was initiated by addition of the PTP and quenched after 10 min by addition of 50 μl of IN NaOH. The non-enzymatic hydrolysis of the substrate was corrected by measuring the control without the addition of the enzyme. The amount of p-nitrophenol produced was determined from the absorbance at 410 nm. To determine the kinetic parameter, Km, the initial velocities were measured at various substrate concentrations and the data were fitted to the Michaelis equation where velocity=(Vmax*[S])/(Km+[S]), and [S]=substrate reaction concentration.
(§5) The effect of the compounds on PTP was evaluated at 25° C. using pNPP or FDP as substrate. PTP was pre-incubated for fifteen minutes with various concentrations of compound. Substrate was then added at a fixed concentration (usually equal to the Km previously calculated). After 10 minutes, NaOH was added to stop the reaction. The hydrolysis of pNPP was followed at 410 nm on the Biotek Powerwave 200 microplate scanning spectrophotometer. The percent inhibition was calculated as follows: Percent Inhibition=[(control signal−compound signal)/control signal] ×100%. The IC50 was then determined by interpolation of a percent inhibition versus compound concentration plot.
(§6) Plasmids designed for bacterial GST-PTP fusion protein expression were derived by insertion of PCR-generated human PTP fragments into pGEX vectors (Pharmacia Biotech). Several of these constructs were then used to subclone phosphatases into pFastBac-1for expression in Sf-9 insect cells. Oligonucleotides used for the initial amplification of PTP genes are shown below. The cDNAs were prepared using the Gilbo BRL superscript preamplification system on RNAs purchased from Clontech.
The PTP Beta cDNA used has been described earlier (Levy et al., 1993, J. Biol. Chem, 268:10573-10581). The catalytic domain was amplified using the following oligonucleotides: 5′oligo: 5′-[…]-3′ (SEQ ID NO: 16) 3′oligo: 5′-[…]-3′ (SEQ ID NO: 17) and subsequently cloned into the Eco RI/Xho I sites of pGEX 6P-1.

PTP 1B = target: T2, PTP 1B (Homo sapiens, UniProt P18031)
T2 construct: made in house; host or cells: Sf-9 insect cells (pFastBac-G2T)
T2 sequence (P18031 1-435): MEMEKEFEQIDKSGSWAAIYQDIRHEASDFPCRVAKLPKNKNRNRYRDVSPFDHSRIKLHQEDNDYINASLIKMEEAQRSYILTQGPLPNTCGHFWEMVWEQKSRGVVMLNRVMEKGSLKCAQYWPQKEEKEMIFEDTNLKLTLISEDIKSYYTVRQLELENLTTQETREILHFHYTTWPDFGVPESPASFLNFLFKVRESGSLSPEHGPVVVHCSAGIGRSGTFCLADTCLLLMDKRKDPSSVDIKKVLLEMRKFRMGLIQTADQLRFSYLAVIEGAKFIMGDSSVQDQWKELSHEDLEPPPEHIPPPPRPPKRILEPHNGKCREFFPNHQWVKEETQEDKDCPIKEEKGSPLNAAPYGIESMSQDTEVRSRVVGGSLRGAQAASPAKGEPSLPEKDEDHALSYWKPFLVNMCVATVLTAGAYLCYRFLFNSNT
Method: as §1, §2, §3, §4, §5, §6
The PTP1b cDNA was amplified from human placenta single strand cDNA (Clontech RNA) using the following oligonucleotides: 5′oligo: 5′-[…] (SEQ ID NO: 4) 3′oligo: 5′-[…] (SEQ ID NO: 5) It was subsequently ligated into pFasBac G2TBamH1Xba-1 sites.

PTP SHP2 = target: T3, PTP SHP2 (Homo sapiens, UniProt Q06124)
T3 construct: The catalytic domain was amplified using the following oligonucleotides; made in house; host or cells: Sf-9 insect cells (pFastBac-G2T)
T3 sequence (Q06124 247-517 limits assumed): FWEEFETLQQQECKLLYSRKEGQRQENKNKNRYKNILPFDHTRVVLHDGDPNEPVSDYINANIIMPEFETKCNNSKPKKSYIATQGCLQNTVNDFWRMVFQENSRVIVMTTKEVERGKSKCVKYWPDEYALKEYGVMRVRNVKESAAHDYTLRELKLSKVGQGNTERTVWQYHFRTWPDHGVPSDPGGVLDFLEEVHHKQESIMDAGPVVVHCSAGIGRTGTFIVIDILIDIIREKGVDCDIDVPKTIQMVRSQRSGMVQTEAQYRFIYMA
Method: as §1, §2, §3, §4, §5, §6
SHP-2 cDNA was used as described earlier (Vogel W., et al.,1993, Science, 259:1611-4). The catalytic domain was amplified using the following oligonucleotides 5′oligo: 5′-[…]-3′ (SEQ ID NO: 2) 3′oligo: 5′-[…]-3′ (SEQ ID NO: 3) and subsequently subcloned into BamH1-Xba-1 sites. It was then ligated into pfas Bac-G2T BamH1-Xba-1 sites.

PTP ALPHA = target: T4, PTP ALPHA (Homo sapiens, UniProt P18433); settings: 25° C.
T4 construct: RTPα intracellular domain construct was obtained; made in house; host or cells: E. coli BL-21 (pGEX 3X)

[1] = pNPP or FDP as substrate, 25° C., read-out: PTP IC50 Beta
[2] = pNPP or FDP as substrate, 25° C., read-out: PTP IC50 1B
[3] = pNPP or FDP as substrate, 25° C., read-out: PTP IC50 SHP2

T1 sequence (P23467 1653-1997): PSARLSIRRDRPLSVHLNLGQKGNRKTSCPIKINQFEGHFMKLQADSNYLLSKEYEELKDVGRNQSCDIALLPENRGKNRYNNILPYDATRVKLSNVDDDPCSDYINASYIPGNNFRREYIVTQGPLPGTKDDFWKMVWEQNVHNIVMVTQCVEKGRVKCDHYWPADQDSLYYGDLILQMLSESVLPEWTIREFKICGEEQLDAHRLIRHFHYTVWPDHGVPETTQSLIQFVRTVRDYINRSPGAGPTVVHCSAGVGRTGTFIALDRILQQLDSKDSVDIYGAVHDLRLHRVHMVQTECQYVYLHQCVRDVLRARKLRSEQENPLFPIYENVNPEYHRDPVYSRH

| IC50 (PTP BETA; [1]) | IC50 (PTP 1B; [2]) | IC50 (PTP SHP2; [3]) | IC50 (PTP ALPHA) | IC50 (PTP BETA; comparison of R groups, read-out: IC50 Beta) | IC50 (PTP 1B; comparison of R groups, read-out: IC50 1B) | IC50 (PTP SHP2; comparison of R groups, read-out: IC50 SHP2) | SMILES | IC50 (PTP BETA; PTP IC50 Beta, pNPP or FDP as substrate, 25° C.) | IC50 (PTP 1B; PTP IC50 1B, pNPP or FDP as substrate, 25° C.) | IC50 (PTP SHP2; PTP IC50 SHP2, pNPP or FDP as substrate, 25° C.) |
| --- | --- | --- | --- | --- | --- | --- | --- | --- | --- | --- |
| 6.4 µM | 35.4 µM | 37 µM | 19.3 µM |  |  |  | O=C(O)Cc1ccc(CC(=O)Nc2cccc(S(=O)(=O)C(F)(F)F)c2)cc1 [Example 29, {4-[(3-Trifluoromethanesulfonyl-phenylcarbamoyl)-methyl]-phenyl}-acetic acid] |  |  |  |
| 4.5 µM | 6.2 µM | 5.7 µM | 6 µM |  |  |  | O=C(O)c1cc(Oc2ccc(S(=O)(=O)C(F)(F)F)cc2)cc(Oc2ccc(S(=O)(=O)C(F)(F)F)cc2)c1 [Example 31, 3,5-Bis-(4-trifluoromethanesulfonyl-phenoxy)-benzoic acid] |  |  |  |
| 39.9 µM | 60.4 µM | 36.6 µM | > 100 µM |  |  |  | O=S(=O)(Nc1ccc(CCc2ccc(NS(=O)(=O)C(F)(F)F)cc2)cc1)C(F)(F)F [Example 66, 1,2-Bis(4-trifluoromethylsulfonamidophenyl)ethane] |  |  |  |
| 55.9 µM | 35 µM | 17 µM | 53.6 µM |  |  |  | Cc1cc(NS(=O)(=O)C(F)(F)F)ccc1CCc1ccc(NS(=O)(=O)C(F)(F)F)cc1C [Example 67, 1,2-Bis(2-methyl-4-trifluoromethylsulfonamidophenyl)ethane] |  |  |  |
| 15.2 µM | 44.6 µM | 6.2 µM | 27 µM |  |  |  | CC(C)(COc1ccc(NS(=O)(=O)C(F)(F)F)cc1)COc1ccc(NS(=O)(=O)C(F)(F)F)cc1 [Example 68, 1,3-Bis(4-trifluoromethylsulfonamidophenoxy)-2,2-dimethylpropane] |  |  |  |
| > 100 µM | 78.9 µM | 20.3 µM | 31 µM |  |  |  | O=S(=O)(Nc1ccc(OCCCOc2ccc(NS(=O)(=O)C(F)(F)F)cc2)cc1)C(F)(F)F [Example 69, 1,3-Bis(4-trifluoromethylsulfonamidophenoxy)propane] |  |  |  |
| 7 µM | 85 µM | 17.1 µM | 46 µM |  |  |  | O=S(=O)(Nc1ccc(OCCCCOc2ccc(NS(=O)(=O)C(F)(F)F)cc2)cc1)C(F)(F)F [Example 70, 1,4-Bis(4-trifluoromethylsulfonamidophenoxy)butane] |  |  |  |
| 12.1 µM | 10.6 µM | 3.4 µM | 11.9 µM | 12.1 µM | 10.6 µM | 3.4 µM | O=S(=O)(Nc1ccc(Oc2ccc(Oc3ccc(NS(=O)(=O)C(F)(F)F)cc3)cc2)cc1)C(F)(F)F [Example 71, 1,4-Bis(4-trifluoromethylsulfonamidophenoxy)benzene] |  |  |  |

| SMILES | IC50 (PTP BETA; [1]) | IC50 (PTP 1B; [2]) | IC50 (PTP SHP2; [3]) | IC50 (PTP ALPHA) | IC50 (PTP BETA; comparison of R groups, read-out: IC50 Beta) | IC50 (PTP 1B; comparison of R groups, read-out: IC50 1B) | IC50 (PTP SHP2; comparison of R groups, read-out: IC50 SHP2) | IC50 (PTP BETA; PTP IC50 Beta, pNPP or FDP as substrate, 25° C.) | IC50 (PTP 1B; PTP IC50 1B, pNPP or FDP as substrate, 25° C.) | IC50 (PTP SHP2; PTP IC50 SHP2, pNPP or FDP as substrate, 25° C.) |
| --- | --- | --- | --- | --- | --- | --- | --- | --- | --- | --- |
| NC(=O)c1cc(Oc2ccc(S(=O)(=O)C(F)(F)F)cc2[N+](=O)[O-])cc(Oc2ccc(S(=O)(=O)C(F)(F)F)cc2[N+](=O)[O-])c1 [Example 30, 3,5-Bis-(2-nitro-4-trifluoromethanesulfonyl-phenoxy)-benzamide] |  |  |  | > 100 µM |  |  |  | 3.4 µM | > 100 µM | 52.8 µM |
